In patent US20130136794A1, “HETEROARYL (ALKYL) DITHIOCARBAMATE COMPOUNDS, PREPARATION METHODS AND USES THEREOF” (PEKING UNIVERSITY, priority 2010, published 2013) one finds inhibition, melting point and EC50 data, which are given here for 14 compounds.

In series [1] the test system is KB human nasopharyngeal cancer. Description: Inhibition of tumor cell proliferation at 10 μM, Model D: SRB method. The following applies: read-out: Model D Inhibitory rate (%). In kind it is cell-based. An excerpt: (§1) The evaluation of the compounds according to the present invention on the inhibition rate of the proliferation of four different tumor cells, using the routine method for anti-tumor activity tests in the pharmaceutical filed, for example the method described in the following literature: (J. Immuno/Method, 1983, 65, 55).

In series [2] the test system is Bel-7402 human liver cancer. Description: Inhibition of tumor cell proliferation at 10 μM, Model C: SRB method. The following applies: Bel-7402, SRB method, read-out: Model C Inhibitory rate (%). In kind it is cell-based.
From the text: as §1
For orientation: In SRB staining, fixed cells bind dye roughly in proportion to their protein.

The test system of series [3] is BGC-823 human gastric cancer. Description: Inhibition of tumor cell proliferation at 10 μM, Model B: SRB method. The series is classed as cell-based. The following applies: BGC-823, SRB method, read-out: Model B Inhibitory rate (%).
From the text: as §1

For series [4], the system named is HL-60 human leukaemia. Description: Inhibition of tumor cell proliferation at 10 μM, Model A: MTT method. In kind it is cell-based. The following applies: HL-60, MTT method, read-out: Model A Inhibitory rate (%).
From the text: as §1
In general terms: Tetrazolium dyes change colour on reduction, which living cells bring about.

In series [5] the test system is Bel-7402 cells. Description: EC50 on proliferation of Bel7402 cells (SRB, 48 h). Particulars: Homo sapiens, read-out: Bel7402 EC50 (nmol). The series is classed as cell-based. On the procedure:
(§2) EC50 values of the compounds according to the present invention on the proliferation of human leukaemia HL-60 cells and Bel-7402 cells were determined by using the following method, and the results are shown in Table 2.
Testing method for ED50 values on the human Be17402ce11: After the cells were incubated with the addition of the drugs for 48 h, the plates were taken out. 50 μL of pre-cooled 500 g/L trichloroacetic acid was added into each well. The plates were kept in 4° C. refrigerator for 1 h after standing for 5 min, taken out, washed with deionized water for 5 times, and dried in the air. After the plates were completely dried, 100 μL of 0.4% SRB (formulated in 1% acetic acid) was added into each well. Following staining for 20 min, the staining solution was discarded, and the residue was washed with 1% acetic acid for 5 times to remove the uncombined dye. After being dried in the air, the residue was dissolved in 150 μL of 10 mmol/L unbuffered
Tris basic solution (pH=10.5), and oscillated in an oscillator for 5 min. The absorbance of each well at 490 nm was measured with TECAN enzyme mark instrument. The cells in background control plates were treated in the same way for measuring OD490. The EC50 values were calculated by using Prism Graphpad statistical software.

Series [6] concerns human leukaemia HL-60 cells. Description: EC50 on proliferation of HL-60 cells (MTT, 48 h). Particulars: read-out: HL-60 EC50 (nmol). In kind it is cell-based. How it is done:
as §2
Testing method for EC50 values on the human leukaemia HL-60 cells: The human leukaemia HL-60 cells were cultured in vitro. The cells were collected after growth to logarithmic phase, and centrifugated at 1000 rpm for 5 min. The supernatant was discarded and the cells were suspended in an appropriate amount of medium. The cell concentration was adjusted to 1.2×10^4/mL. The cells were seeded into 96-well culture plates in 90 μL per well. For each well of the drug treatment groups, 10 μL of medium-diluted drug was added, whereas for the blank control groups, the same amount of medium was added. Every testing drug was set up for three parallel wells, and also three control wells with only testing drugs (without cell) were set up. Negative control groups were medium containing 0.5% DMSO. After the plate was incubated in an incubator for 48 h, 10 μL of 5 mg/mL MTT was added into each well, and then the plate was placed for 3 h at 37° C. 100 μL of ternary solution (5% SDS, 10 mM HCl, 5% isopropanol) was added into each well, and the plate was kept at 37° C. overnight. The absorbance (OD) was measured at 595 nm/620 nm. The EC50 values were calculated by using Prism Graphpad statistical software.

SMILES strings stand for the structures. Some results are limits rather than exact numbers.

In the case of `N#CCCSC(=S)NCc1ccco1` [Compound 3, 2-cyanoethyl(furan-2-ylmethyl)dithiocarbamate], the inhibition at 10 µM in series [1] turned out to be 55.1%; in series [2], 68.2%; in series [3], 29.5%; in series [4], 24.6%.
For `NS(=O)(=O)CCSC(=S)NCc1ccco1` [Compound 5, 2-sulfamoylethyl(furan-2-ylmethyl)dithiocarbamate], the inhibition at 10 µM in series [1] is 31.6%; in series [2], 17.5%; in series [3], 17.2%; in series [4], 17.3%.
Taken in the same sequence, the figures for `OB(O)CCSC(=S)NCc1ccco1` [Compound 6, 2-boronoethyl(furan-2-ylmethyl)dithiocarbamate] were 1.68%, 2.9%, 14.5% and 0.06%.
Take `N#CCCSC(=S)NCc1ccc(-c2ccco2)nc1` [Compound 25, 2-cyanoethyl{[6-(furan-2-yl)pyridin-3-yl]methyl}dithiocarbamate]: the melting point lay in the range of 118 to 120 °C. Further, the half-maximal effective concentration (EC50) in series [5] came out at 21.1 nM. In addition, in series [6], the EC50 came out at 4.78 nM.
For `CN1CCOC2C=C(CNC(=S)SCCC#N)C=NC21` (stereo not drawn) [Compound 26, 2-cyanoethyl[(4-methyl-3,4,4a,8a-tetrahydro-2/4-pyrido[3,2-b][1 ,4]oxazin-7-yl)-methyl]dithiocarbamate] the same measures were 117 to 118 °C, 96.4 nM and 82.2 nM.
The compound `N#CCCSC(=S)NC(c1ccccc1)c1cccnc1` (stereo not drawn) [Compound 31, 2-cyanoethyl[phenyl(pyridin-3-yl)methyl]dithiocarbamate] showed a melting point of 118 to 120 °C. For the same compound, in series [5], the EC50 was found to be 234 nM. For the same compound, the EC50 in series [6] was found to be 4.7 nM.
The compound `COc1ccc(CNC(=S)SCCC#N)cn1` [Compound 33, 2-cyanoethyl[(6-methoxypyridin-3-yl)methyl]dithiocarbamate] came in with a melting point of 90 to 92 °C. For the same compound, the EC50 in series [5] is 109 nM. For the same compound, the EC50 in series [6] was determined as 0.813 nM.
`Cc1nc(-c2ccccc2)oc1CNC(=S)SCCC#N` [Compound 34, 2-cyanoethyl[(4-methyl-2-phenyloxazol-5-yl)methyl]dithiocarbamate] displayed a melting point of 221 to 224 °C. Further, the EC50 in series [5] worked out at 17.9 nM. For the same compound, the EC50 in series [6] is 7.88 nM.
As for `N#CCCSC(=S)NCc1nccs1` [Compound 38, 2-cyanoethyl(thiazol-2-ylmethyl)dithiocarbamate], the melting point lay within 76 to 78 °C. The EC50 in series [5] amounted to 296 nM. Moreover, the EC50 in series [6] turned out to be 109 nM.
Taken in the same sequence, the figures for `N#CCCSC(=S)NCc1cnccn1` [Compound 39, 2-cyanoethyl(pyrazin-2-ylmethyl)dithiocarbamate] were 96 to 99 °C, greater than 1000 nM and greater than 1000 nM.
For `N#CCCSC(=S)NCc1nnc(-c2ccccc2)o1` [Compound 40, 2-cyanoethyl[(5-phenyl-1,3,4-oxadiazol-2-yl)methyl]dithiocarbamate] the same measures were 148 to 152 °C, 25.7 nM and 14.2 nM.
Taken in the same sequence, the figures for `N#CCCSC(=S)NCc1cnc(N2CCOCC2)nc1` [Compound 41, 2-cyanoethyl[(2-morpholinopyrimidin-5-yl)methyl]dithiocarbamate] were 151 to 154 °C, 22.4 nM and 5.03 nM.
The compound `N#CCCSC(=S)NCCCc1cccnc1` [Compound 42, 2-cyanoethyl[3-(pyridin-3-yl)propyl]dithiocarbamate] gave a melting point of 81 to 83 °C. Moreover, in series [5], the EC50 came to 3.48 nM. Moreover, the EC50 in series [6] stood at 4.82 nM.
In the case of `N#CCCSC(=S)NCc1nnc(-c2ccccc2)s1` [Compound 45, 2-cyanoethyl[(5-phenyl-1,3,4-thiadiazol-2-yl)methyl]dithiocarbamate], the melting point was in the range of 156 to 158 °C. In series [5], the EC50 is 18.6 nM. Besides, the EC50 in series [6] is 11.8 nM.

What is called melting point is the temperature, or range, at which the solid turns liquid. What is called EC50 is the concentration that produces a half-maximal response.
